The results in this text go back to patent US20240024317A1, “CANCER TREATMENT USING BOSENTAN IN COMBINATION WITH A CHECKPOINT INHIBITOR” (Materia Therapeutics Inc., priority 2020, published 2024).

Common to all, as to assay type: in vivo, mice
Test [1] concerns orthotopic E0771 breast tumors. Put plainly: Pimonidazole hypoxia staining. The following applies: 1 mg/kg; E0771 (FIG. 2A). The protocol:
Because reducing collagen I levels and tissue stiffness decompresses vessels, it was hypothesized that hypoxia, which is an indicator of decreased blood flow to the tumor, would be reduced with bosentan treatment. […] For the hypoxia studies, Mice bearing orthotopic E0771 or 4T1 breast tumors were injected (intraperitoneal) with 60 mg/kg of pimonidazole HCl at 2 hr prior to tumor removal. Prior to tumors excision, animals were anesthetized via Avertin (200 mg/kg, intraperitoneal). Primary tumors were then excised, fixed in 4% PFA, embedded in OCT and processed accordingly for IHC. Hypoxic regions were detected using the mouse anti-pimonidazole RED 549 conjugate antibody (HP7-100Kit, 1:100). Hypoxic area fraction across different treatment groups was normalized to DAPI staining. For fluorescent immunohistochemistry, tumors were removed, washed twice in 1× PBS for 10 min and incubated with 4% PFA overnight at 4° C. The fixative was aspirated, and samples washed twice in 1× PBS for 10 min. Fixed tissues were embedded in optimal cutting temperature compound in cryomolds (Tissue-Tek) and frozen completely at −20° C. […] CD31 signal was detected with Alexa Fluor-488 anti-rabbit IgG (H+L) and CD3 signal with Alexa Fluor-647 anti-rat IgG (H+L) secondary antibodies. Tumor associated T cell and vessel content was determined by the CD31 and CD3 area fraction normalized to DAPI staining. […]

The subject of test [2] is 4T1 tumors. Put plainly: Shear wave elastography of tumor stiffness (Example 5). As to conditions: bosentan 1 mg/kg. The source says: Ultrasound elastography. Shear wave elestography was employed on a premier Philips EPIQ Elite Ultrasound system using a handheld linear array (eL 18-4) transducer. The method generates shear wave velocity via an acoustic push pulse, creating a color mapped elastogram where red indicates hard tissue and blue indicates soft tissue. A confidence display was also used as a reference of the highest shear wave quality of the user-defined region of interest (ROI). The average value of the tumor region was automatically generated by the system under default scanner settings and expressed in kPa. The settings that were used were: frequency, 10 MHz; power, 52%; B-mode gain, 22 dB; dynamic range, 62 dB. Shear wave imaging was performed prior to immunotherapy cocktail treatment on day 19 and as well on days 23 and 26.

Test [3] concerns 4T1 tumors. Put plainly: Dynamic contrast-enhanced ultrasound (DCEUS) perfusion measures. The following applies: bosentan treated versus control or immunotherapy cocktail only. The protocol:
Dynamic contrast-enhanced ultrasound (DCEUS). Tumor associated vascular perfusion was assessed with DCEUS after bolus injection of contrast agents (8 μl of sulphur hexafluoride microbubbles encapsulated by a phospholipid shell with a mean diameter of 2.5 μm, retro-orbital administration). Ultrasound scanning of tumor was performed using the L12-5 transducer. Contrast first harmonic signals were received at 8 MHz with a mechanical index of 0.06. For all subjects the depth was set to 3 cm allowing measurements of the full depth of the tumor. Gain was set at 90% for each recording. Focus was optimized and standardized for each subject when finding the tumor area using B-mode imaging. Real-time power modulation imaging was started after flashing imaging with a high mechanical index to destroy the microbubbles in tumor tissue to peak contrast intensity to allow visualization of bubble replenishment. Image analysis was performed offline using an ultrasound quantification and analysis software (QLAB, Phillips Medical Systems). From the produced time intensity curves, we used as measures of perfusion the Mean transit time and the time required to reach the peak intensity (Rise time). […]

For the compound `COc1ccccc1Oc1c(NS(=O)(=O)c2ccc(C(C)(C)C)cc2)nc(-c2ncccn2)nc1OCCO` [bosentan, 4-tert-butyl-N-[6-(2-hydroxy-ethoxy)-5-(2-methoxy-phenoxy)-2-(pyrimidin-2-yl)pyrimidin-4-yl] benzenesulfonamide], the “hypoxia (pimonidazole staining)” value in test [1] was “reduced hypoxia”. In the test on 4T1 tumors [2], the “reduction of tumor stiffness” value was “more than half” and the “tumor stiffness (elastic modulus) after bosentan treatment” value was roughly 20 kPa. Also, in the test on 4T1 tumors [3], the “mean transit time (DCEUS)” value was “higher” and the “rise time (DCEUS)” value is reported as “higher”.
